Data reported in patent US9833497B2, “Human originated EGF domain proteins and use of the same” (CHENGDU SOURCEBIO LIMITED-LIABILITY COMPANY, priority 2013, dated 2017).

Experiments:
Assay type in all cases: cell-based
[1] = test system: Aeromonas hydrophila; experiment: MIC against Gram-negative bacteria: Aeromonas hydrophila
Outline: (§1)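 Bacteria grown in LB at 37° C with shaking to McFarland 0.5, pelleted and resuspended in fresh LB, then seeded at 5×10^5 CFU/mL per well. Purified recombinant human EGF domain proteins were two-fold serially diluted in triplicate and plates shaken at 37° C, 175 rpm. MIC is the lowest protein concentration with no bacterial growth.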

[2] = test system: E. coli DH5α; experiment: Antibacterial activity: MIC and growth curve against E. coli DH5α in 96-well plate; conditions: minimal inhibitory concentration against E. coli DH5α; 96-well plate, 5×10^5 CFU/mL, 37° C., judged after 8 h
Outline: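 Log-phase bacteria (OD600 ~0.5) resuspended in LB at 5×10^5 CFU/mL, exposed to recombinant protein at 50, 25, 12.5 μg/mL final in triplicate, 37 °C shaking at 175 rpm. OD600 read every 30 min; MIC is lowest concentration showing no growth.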

[3] = test system: Pseudomonas aeruginosa; experiment: MIC against Gram-negative bacteria: Pseudomonas aeruginosa
Outline: as §1

[4] = test system: Enterobacter cloacae; experiment: MIC against Gram-negative bacteria: Enterobacter cloacae
Outline: as §1

[5] = test system: Proteus vulgaris; experiment: MIC against Gram-negative bacteria: Proteus vulgaris
Outline: as §1

[6] = test system: Moraxella catarrhalis; experiment: MIC against Gram-negative bacteria: Moraxella catarrhalis
Outline: as §1

[7] = test system: Citrobacter diversus; experiment: MIC against Gram-negative bacteria: Citrobacter diversus
Outline: as §1

[8] = test system: E. coli BL21; experiment: MIC against Gram-negative bacteria: E. coli BL21
Outline: as §1

[9] = test system: Proteus mirabilis; experiment: MIC against Gram-negative bacteria: Proteus mirabilis
Outline: as §1

[10] = test system: Serratia marcescens; experiment: MIC against Gram-negative bacteria: Serratia marcescens
Outline: as §1

[11] = test system: Klebsiella pneumonia; experiment: MIC against Gram-negative bacteria: Klebsiella pneumonia
Outline: as §1

[12] = Aeromonas hydrophila, 96-well plate, 5×10^5 CFU/mL, 37° C., 10 h
[13] = Pseudomonas aeruginosa, 96-well plate, 5×10^5 CFU/mL, 37° C., 10 h
[14] = Enterobacter cloacae, 96-well plate, 5×10^5 CFU/mL, 37° C., 10 h
[15] = Proteus vulgaris, 96-well plate, 5×10^5 CFU/mL, 37° C., 10 h
[16] = Moraxella catarrhalis, 96-well plate, 5×10^5 CFU/mL, 37° C., 10 h
[17] = Citrobacter diversus, 96-well plate, 5×10^5 CFU/mL, 37° C., 10 h
[18] = E. coli BL21, 96-well plate, 5×10^5 CFU/mL, 37° C., 10 h
[19] = Proteus mirabilis, 96-well plate, 5×10^5 CFU/mL, 37° C., 10 h
[20] = Serratia marcescens, 96-well plate, 5×10^5 CFU/mL, 37° C., 10 h
[21] = Klebsiella pneumonia, 96-well plate, 5×10^5 CFU/mL, 37° C., 10 h
[22] = A. hydrophila, 10 h cultivation at 37° C.
[23] = P. aeruginosa, 10 h cultivation at 37° C.
[24] = E. cloacae, 10 h cultivation at 37° C.
[25] = P. vulgaris, 10 h cultivation at 37° C.
[26] = M. catarrhalis, 10 h cultivation at 37° C.
[27] = C. diversus, 10 h cultivation at 37° C.
[28] = E. coli BL21, 10 h cultivation at 37° C.
[29] = P. mirabilis, 10 h cultivation at 37° C.
[30] = S. marcescens, 10 h cultivation at 37° C.
[31] = K. pneumonia, 10 h cultivation at 37° C.
[32] = 96-well plate, 5×10^5 CFU/mL, 37° C., 10 h
[33] = A. hydrophila, 10 h cultivation at 37° C., 5×10^5 CFU/mL
[34] = P. aeruginosa, 10 h cultivation at 37° C., 5×10^5 CFU/mL
[35] = E. cloacae, 10 h cultivation at 37° C., 5×10^5 CFU/mL
[36] = P. vulgaris, 10 h cultivation at 37° C., 5×10^5 CFU/mL
[37] = M. catarrhalis, 10 h cultivation at 37° C., 5×10^5 CFU/mL
[38] = C. diversus, 10 h cultivation at 37° C., 5×10^5 CFU/mL
[39] = E. coli BL21, 10 h cultivation at 37° C., 5×10^5 CFU/mL
[40] = P. mirabilis, 10 h cultivation at 37° C., 5×10^5 CFU/mL
[41] = S. marcescens, 10 h cultivation at 37° C., 5×10^5 CFU/mL
[42] = K. pneumonia, 10 h cultivation at 37° C., 5×10^5 CFU/mL
[43] = Aeromonas hydrophila, 5×10^5 CFU/mL, 10 h cultivation at 37° C.
[44] = Pseudomonas aeruginosa, 5×10^5 CFU/mL, 10 h cultivation at 37° C.
[45] = Enterobacter cloacae, 5×10^5 CFU/mL, 10 h cultivation at 37° C.
[46] = Proteus vulgaris, 5×10^5 CFU/mL, 10 h cultivation at 37° C.
[47] = Moraxella catarrhalis, 5×10^5 CFU/mL, 10 h cultivation at 37° C.
[48] = Citrobacter diversus, 5×10^5 CFU/mL, 10 h cultivation at 37° C.
[49] = E. coli BL21, 5×10^5 CFU/mL, 10 h cultivation at 37° C.
[50] = Proteus mirabilis, 5×10^5 CFU/mL, 10 h cultivation at 37° C.
[51] = Serratia marcescens, 5×10^5 CFU/mL, 10 h cultivation at 37° C.
[52] = Klebsiella pneumonia, 5×10^5 CFU/mL, 10 h cultivation at 37° C.

PRT1337 (QTSACGPYVQFCHIHATCEYSNGTASCICKAGYEGDGTLCS; listed as Homo sapiens)
25 mg/L: MIC against A. hydrophila [1, 12] | MIC against C. diversus [7, 17] | MIC against P. mirabilis [9, 19] | MIC against K. pneumonia [11, 21]
12.5 mg/L: MIC [2] | MIC against P. aeruginosa [3, 13] | MIC against M. catarrhalis [6, 16] | MIC against S. marcescens [10, 20]
50 mg/L: MIC against E. cloacae [4, 14] | MIC against P. vulgaris [5, 15] | MIC against E. coli BL21 [8, 18]

PRT1014 (LRDFCSANPCVNGGVCLATYPQIQCHCPPGFEGHACE; listed as Homo sapiens)
50 mg/L: MIC [1, 22] | MIC [3, 23] | MIC [5, 25] | MIC [6, 26]
25 mg/L: MIC [8, 28] | MIC [10, 30] | MIC [11, 31]
12.5 mg/L: MIC [2] | MIC [4, 24] | MIC [7, 27] | MIC [9, 29]

PRT520 (CRCNAGGSFSEVCHSQTGQCECRANVQGQRCDKCKAGTFGLQSARGCVP; listed as Homo sapiens)
12.5 mg/L: MIC against A. hydrophila [1, 32] | MIC against P. vulgaris [5, 32] | MIC against E. coli BL21 [8, 32] | MIC against K. pneumonia [11, 32]
25 mg/L: MIC [2] | MIC against P. aeruginosa [3, 32] | MIC against E. cloacae [4, 32] | MIC against C. diversus [7, 32] | MIC against P. mirabilis [9, 32] | MIC against S. marcescens [10, 32]
50 mg/L: MIC against M. catarrhalis [6, 32]

PRT221 (YTECTDGYEWDPDSQHCRDVNECLTIPEACKGEMKCINHYGGYLCL; listed as Homo sapiens)
50 µg/mL: MIC (μg/mL) A. hydrophila [1, 33] | MIC (μg/mL) P. aeruginosa [3, 34] | MIC (μg/mL) P. vulgaris [5, 36] | MIC (μg/mL) E. coli BL21 [8, 39]
25 µg/mL: MIC (μg/mL) E. cloacae [4, 35] | MIC (μg/mL) C. diversus [7, 38] | MIC (μg/mL) P. mirabilis [9, 40]
12.5 µg/mL: MIC (μg/mL) M. catarrhalis [6, 37] | MIC (μg/mL) S. marcescens [10, 41] | MIC (μg/mL) K. pneumonia [11, 42]
12.5 mg/L: MIC [2]

PRT982 (VLSPCESQPCQHGGQCRPSPGPGGGLTFTCHCAQPFWGPRCE; listed as Homo sapiens)
50 mg/L: MIC [2] | MIC [7, 27] | MIC [9, 29] | MIC [10, 30] | MIC [11, 31]
12.5 mg/L: MIC [3, 23] | MIC [4, 24] | MIC [5, 25] | MIC [6, 26]
25 mg/L: MIC [1, 22] | MIC [8, 28]

PRT1412 (RASCPVLCSGNGQYMKGRCLCHSGWKGAECD; listed as Homo sapiens)
12.5 mg/L: MIC against M. catarrhalis [6, 47] | MIC against K. pneumonia [11, 52]
25 mg/L: MIC [2] | MIC against P. aeruginosa [3, 44] | MIC against E. cloacae [4, 45] | MIC against C. diversus [7, 48] | MIC against P. mirabilis [9, 50] | MIC against S. marcescens [10, 51]
50 mg/L: MIC against A. hydrophila [1, 43] | MIC against P. vulgaris [5, 46] | MIC against E. coli BL21 [8, 49]

PRT455 (DVNECSQENGGCLQICHNKPGSFHCSCHSGFELSSDGRTCQ; listed as Homo sapiens)
50 mg/L: MIC [2] | MIC against P. aeruginosa [3, 32] | MIC against E. cloacae [4, 32] | MIC against C. diversus [7, 32] | MIC against P. mirabilis [9, 32] | MIC against S. marcescens [10, 32]
12.5 mg/L: MIC against A. hydrophila [1, 32] | MIC against M. catarrhalis [6, 32] | MIC against E. coli BL21 [8, 32] | MIC against K. pneumonia [11, 32]
100 mg/L: MIC against P. vulgaris [5, 32]

PRT715 (DIDECSSGFPCSQQCINTYGTYKCLCTDGYEIQPDNPNGCK; listed as Homo sapiens)
12.5 mg/L: MIC A. hydrophila [1, 32] | MIC M. catarrhalis [6, 32] | MIC S. marcescens [10, 32] | MIC K. pneumonia [11, 32]
25 mg/L: MIC P. aeruginosa [3, 32] | MIC P. mirabilis [9, 32]
50 mg/L: MIC [2] | MIC E. cloacae [4, 32] | MIC P. vulgaris [5, 32] | MIC C. diversus [7, 32] | MIC E. coli BL21 [8, 32]

PRT440 (DVNECRQNVCRPDQHCKNTRGGYKCIDLCPNGMTKAENGTCI; listed as Homo sapiens)
50 mg/L: MIC [2] | MIC [3, 34] | MIC [4, 35] | MIC [5, 36] | MIC [7, 38]
12.5 mg/L: MIC [1, 33] | MIC [6, 37] | MIC [8, 39] | MIC [11, 42]
25 mg/L: MIC [9, 40] | MIC [10, 41]

PRT967 (ARDACESQPCRAGGTCSSDGMGFHCTCPPGVQGRQCE; listed as Homo sapiens)
50 mg/L: MIC [2]
25 mg/L: MIC [1, 22] | MIC [5, 25] | MIC [6, 26] | MIC [11, 31]
12.5 mg/L: MIC [3, 23] | MIC [4, 24] | MIC [7, 27] | MIC [8, 28] | MIC [9, 29] | MIC [10, 30]

PRT133 (CRGHCSSYGKLCRNGGKCRERPIGFFCDCTFSAYTGPFCS; listed as Homo sapiens)
50 mg/L: MIC [2]
12.5 µg/mL: MIC (μg/mL) E. cloacae [4, 14] | MIC (μg/mL) E. coli BL21 [8, 18] | MIC (μg/mL) P. mirabilis [9, 19] | MIC (μg/mL) S. marcescens [10, 20]
50 µg/mL: MIC (μg/mL) P. aeruginosa [3, 13] | MIC (μg/mL) P. vulgaris [5, 15] | MIC (μg/mL) C. diversus [7, 17]
25 µg/mL: MIC (μg/mL) A. hydrophila [1, 12] | MIC (μg/mL) M. catarrhalis [6, 16] | MIC (μg/mL) K. pneumonia [11, 21]

PRT1420 (GAWDCSVENGGCEHACNAIPGAPRCQCPAGAALQADGRSCT; listed as Homo sapiens)
50 mg/L: MIC against S. marcescens [10, 51]
25 mg/L: MIC against A. hydrophila [1, 43] | MIC against P. vulgaris [5, 46] | MIC against M. catarrhalis [6, 47]
12.5 mg/L: MIC [2] | MIC against P. aeruginosa [3, 44] | MIC against E. cloacae [4, 45] | MIC against C. diversus [7, 48] | MIC against E. coli BL21 [8, 49] | MIC against P. mirabilis [9, 50] | MIC against K. pneumonia [11, 52]

PRT542 (CRCDIGGALGQSCEPRTGVCRC; listed as Homo sapiens)
12.5 mg/L: MIC against A. hydrophila [1, 32] | MIC against P. vulgaris [5, 32] | MIC against M. catarrhalis [6, 32] | MIC against E. coli BL21 [8, 32]
25 mg/L: MIC [2] | MIC against P. aeruginosa [3, 32] | MIC against E. cloacae [4, 32]
50 mg/L: MIC against C. diversus [7, 32] | MIC against P. mirabilis [9, 32] | MIC against S. marcescens [10, 32] | MIC against K. pneumonia [11, 32]
